Reference: patent US20020072474A1, “Herbicidal compositions” (priority 2000, published 2002)

Experiments:
[1] = test system: LOLMU (Lolium multiflorum); test: Activity against grass weeds, post-emergence spray in pots in controlled-environment cabinet, visual scoring; type: in vivo; settings: mesosulfuron-methyl 60 g a.i./ha (Silwet L77 50 g a.i./ha, sodium lactate 150 g a.i./ha where present); sprayed four weeks after sowing, water 300 l/ha; visual scoring 14 days after application, 0% = no damage to 100% = all plants dead
Description: (§1) The individual components herbicide, surfactant and humectant as stated in Table 1 with regard to the application rates were added with stirring to a water application rate of 300 I/ha so that a homogeneous spray mixture was formed. The herbicide employed was mesosulfuron-methyl as 20 percent water-dispersible powder. The surfactant used was Silwet®L77 (Wacker) and the humectant used was sodium lactate as 50 percent aqueous solution (Merck KGaA, Darmstadt). Seeds of the harmful plants AVEFA and LOLMU were sown in a sandy loam soil in round pots type 13 in a controlled-environment cabinet and watered slightly. During the entire experiment period, the substrate only received minimal irrigation. A daytime temperature of 18° C. and a night time temperature of 16° C. were adhered to, a uniform day length of 16 hours being achieved by additional illumination with sodium vapor lamps (approx. 7000 lux). The relative atmospheric humidity was 50%. Four weeks after sowing, the plants were treated on a laboratory spray conveyor with the spray mixture which had been prepared in accordance with Example 1. The water application rate for the spray application of the preparations was 300 I/ha. After the treatment, the plants were returned to the controlled-environment cabinet. […]

[2] = test system: AVEFA (Avena fatua); test: as above; type: in vivo; settings: mesosulfuron-methyl 60 g a.i./ha (Silwet L77 50 g a.i./ha, sodium lactate 150 g a.i./ha where present); sprayed four weeks after sowing, water 300 l/ha; visual scoring 14 days after application, 0% = no damage to 100% = all plants dead
Description: as §1

COC(=O)c1ccc(CNS(C)(=O)=O)cc1S(=O)(=O)NC(=O)Nc1nc(OC)cc(OC)n1 [Mesosulfuron, mesosulfuron-methyl]
Damage in % LOLMU [1]: 18% | Damage in % AVEFA [2]: 22%
